This passage reports activity and EC50 results from patent US11926613B2, “Kinase inhibitors for the treatment of central and peripheral nervous system disorders” (UNIVERSITY OF MIAMI, priority 2017, dated 2024).

Usually EC50 stands for the concentration at which the effect is half-maximal. Low readings indicate higher potency in that assay, high ones lower potency in that assay.

Assay [1] deals with neurons from hippocampi of E18 rat embryos. Briefly: Neurite growth length (% NTL) in cultured E18 rat hippocampal neurons, 9-point dose response, 48 hours. As to conditions: Rattus norvegicus, Neuron, 48 h; for activity at 0.078 µM: 78 nM; for activity at 0.156 µM: 156 nM; for activity at 0.312 µM: 312 nM; for activity at 0.625 µM: 625 nM. It is filed as cell-based. On the procedure:
PRE-COATING CULTURE PLATES: On the day before the experiment, 96-well plates were pre-coated by plating 50 μl of Poly-D-lysine solution (PDL, 0.5 mg/mL) in each well. The next morning, the plates were washed four or five times with HBSS or PBS (150 μl/rinse), then left in buffer until cell plating
PREPARING THE CELLS: A timed pregnant rat carrying E18 embryos was euthanized using an IACUC approved method. In a laminar flow hood, the embryos were removed and placed in a petri dish containing Hank's Balanced Salt Solution (HBSS) with 20 mM HEPES, pH 7.3. Pup brains were dissected (see Meberg et al., 2003) and hippocampi were collected in 15 mL a conical tube containing Hibernate E with SM1 (2% v/v).
Dissociation media was prepared by combining 4.5 mL of Hibernate E (without SM1) with 0.5 mL of trypsin and 100 μl of DNAse solution. The medium over the hippocampi was carefully removed and replaced with dissociation solution, then incubated at 37° C. for 15-20 minutes, occasionally swirling the tube.
Using flame polished cotton plugged Pasteur pipettes, the dissociation media was removed, and then 5 mL of Hibernate E containing SM1 were added. The tube was swirled to thoroughly wash the tissue. The tissue was allowed to settle to the bottom of the tube, and the rinse solution was carefully removed. This step was repeated 5 times to dilute out trypsin and DNAse and remove any debris from lysed cells.
The final rinse media was removed from the tube and 1 pipette-full (1-2 mL) of Hibernate E with SM1 was added. Using the flame-polished Pasteur pipette (pre-wetted with rinse media), the tube was triturated until all cells had dissociated and no visible chunks of tissue remained. Fewer than ten triturations were typically performed. The volume was adjusted to 8-12 mL using Hibernate E containing SM1, the well was mixed and cell concentration was determined.
PLATING: The cells were diluted in culture media (NbActiv4 Cell-culture media) to a final concentration of 10,000 cells/mL. The HBSS was aspirated from PDL coated plates, and 150 μL of cell solution was loaded in the middle 48 wells at 1500 cells per well. Water was loaded in the outer wells to decrease evaporation from edge wells. Cells were allowed to adhere for 2 hours in tissue culture incubator prior to treatment.
TREATMENT: Compounds were diluted to various concentrations to provide 9 dose response concentrations of 20 μM, 10 μM, 5, μM, 2.5 μM, 1.25 μM, 0.625 μM, 0.3125 μM, 0.15625 μM, and 0.078125 μM. The plates were cultured for 48 hours, exposed to the compound at the various dose response concentrations.
FIXING THE CULTURES: The culture medium was removed from the plates and immediately replaced with 100-200 μl of warm (37° C.) 4% paraformaldehyde (PFA) solution in phosphate-buffered saline (PBS). The cells were fixed for 15-20 minutes at room temperature, and then rinsed with PBS (200 μl/well×3).
STAINING AND IMAGING: The PBS was removed and replaced with 100 μl of blocking/permeabilization buffer (PBS, 0.2% fish gelatin, 0.03% Triton X-100, 0.02% NaN3), then incubated overnight at 4° C. To this was added 100 μl of primary antibody solution (mouse anti-Beta III tubulin in blocking buffer) and incubate overnight at 4° C. The wells were rinsed with PBS (200 μl×3), which was then removed and replaced with 100 μl of secondary antibody solution (Goat anti-mouse Alexa 488, 10 μg/ml Hoechst 33342, 0.2% fish gelatin, 0.02% azide, in PBS). The plate was shaken gently on a rotating shaker for 2 hours, then rinsed with PBS (200 μl×5).
The plate was imaged using a Cellomics ArrayScan VTI in 2 different channels for nuclear staining (Hoechst) and cell body/neurite staining (βIII-tubulin). Typically, nine fields per well were imaged with a 5× objective and automatically traced by the Neuronal Profiling Bioapplication. To get reproducible results, at least 200-300 valid neurons were measured per condition. […]

For another assay, the system named is Primary Neurons. Description: HCS neurite outgrowth assay (High Content Screening with Primary Neurons). As to conditions: Primary neuron. It is filed as cell-based.

On to `O=C(N[C@@H]1CCCCC[C@H]1NC(=O)c1ccc(C(=O)c2ccccc2)cc1)c1ccncc1` [Example A23, N-[(1R,2R)-2-(4-benzoylbenzamido)cycloheptyl]pyridine-4-carboxamide], for which, in assay [1], the activity at 0.078 µM amounted to 98.3%, the activity at 0.156 µM is 102%, the activity at 0.312 µM is 95.6% and the activity at 0.625 µM came to 93.6%. In assay [1], the activity at 1.25 µM worked out at 97%, the activity at 2.5 µM was 101%, the activity at 5 µM was found to be 105% and the activity at 10 µM was determined as 117%. Besides, the activity at 20 µM in assay [1] came out at 144%. The molecule also yielded an EC50 with Primary Neurons of 16.8 µM.
Take `COc1ccc(O)c(C(=O)c2ccc(C(=O)N[C@@H]3CNC[C@H]3NC(=O)c3ccnc(O)c3)cc2)c1F` [Example A40, N-[(3R,4R)-4-[4-(2-fluoro-6-hydroxy-3-methoxybenzoyl)benzamido]pyrrolidin-3-yl]-2-hydroxypyridine-4-carboxamide]: in assay [1], the activity at 0.078 µM worked out at 86.3%, the activity at 0.156 µM was found to be 91.2%, the activity at 0.312 µM worked out at 86.2% and the activity at 0.625 µM was 86.2%. Moreover, in assay [1], the activity at 1.25 µM was determined as 94.1%, the activity at 2.5 µM amounted to 108%, the activity at 5 µM amounted to 101% and the activity at 10 µM is 106%. Besides, the activity at 20 µM in assay [1] is 121%. In addition, it took 9.62 µM to reach a half-maximal effect with Primary Neurons (EC50).
For `O=C(N[C@@H]1CNC[C@H]1NC(=O)c1ccc(C(=O)c2c(O)cccc2F)cc1)c1ccncc1` [Example A51, N-[(3R,4R)-4-[4-(2-fluoro-6-hydroxybenzoyl)benzamido]pyrrolidin-3-yl]pyridine-4-carboxamide], in assay [1], the activity at 0.078 µM was determined as 129%, the activity at 0.156 µM worked out at 129%, the activity at 0.312 µM turned out to be 135% and the activity at 0.625 µM is 158%. Further, in assay [1], the activity at 1.25 µM was 191%, the activity at 2.5 µM was determined as 260%, the activity at 5 µM worked out at 362% and the activity at 10 µM was determined as 506%. Also, the activity at 20 µM in assay [1] turned out to be 421%. In the assay on Primary Neurons, this molecule gave an EC50 of 4.9 µM.
As to `O=C(N[C@@H]1CNC[C@H]1NC(=O)c1ccc(C(=O)c2ccccc2O)cc1Cl)c1ccncc1` [Example A65, N-[(3R,4R)-4-[2-chloro-4-(2-hydroxybenzoyl)benzamido]pyrrolidin-3-yl]pyridine-4-carboxamide], in assay [1], the activity at 0.078 µM turned out to be 108%, the activity at 0.156 µM is 117%, the activity at 0.312 µM stood at 123% and the activity at 0.625 µM turned out to be 113%. For the same molecule, in assay [1], the activity at 1.25 µM stood at 126%, the activity at 2.5 µM came out at 129%, the activity at 5 µM stood at 128% and the activity at 10 µM came out at 150%. Further, the activity at 20 µM in assay [1] was 161%. Further, the response in the assay with Primary Neurons was half-maximal at 7.11 µM (EC50).
On to `Cc1cccc(C(=O)c2ccc(C(=O)N[C@@H]3CNC[C@H]3NC(=O)c3ccncc3)cc2)c1O` [Example A75, N-[(3R,4R)-4-[4-(2-hydroxy-3-methylbenzoyl)benzamido]pyrrolidin-3-yl]pyridine-4-carboxamide], for which, in assay [1], the activity at 0.078 µM amounted to 97.1%, the activity at 0.156 µM stood at 93.7%, the activity at 0.312 µM is 105% and the activity at 0.625 µM is 106%. In assay [1], the activity at 1.25 µM was 116%, the activity at 2.5 µM was 119%, the activity at 5 µM worked out at 119% and the activity at 10 µM amounted to 146%. Further, the activity at 20 µM in assay [1] came out at 140%. Further, in the assay on Primary Neurons, the EC50 amounted to 6.57 µM.
